Test [1] concerns the target Reverse transcriptase/RNaseH (Human immunodeficiency virus 1, UniProt Q72547). Put plainly: Fluorescence-Based RNase H Assay. To be noted: pH 8; 20 °C.
Test [2] addresses T1, Ribonuclease H1 (Homo sapiens, UniProt O60930).
T1 sequence (O60930 whole entry): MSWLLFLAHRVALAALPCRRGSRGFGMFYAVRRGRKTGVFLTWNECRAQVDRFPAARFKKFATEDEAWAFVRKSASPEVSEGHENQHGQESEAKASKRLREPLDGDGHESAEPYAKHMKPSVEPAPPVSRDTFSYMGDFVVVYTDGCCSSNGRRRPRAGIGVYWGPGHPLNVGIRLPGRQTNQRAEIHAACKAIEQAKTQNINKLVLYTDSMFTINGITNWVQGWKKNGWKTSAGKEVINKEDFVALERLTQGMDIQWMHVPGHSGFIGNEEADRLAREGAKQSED
In words: Fluorescence-Based RNase H Assay. To be noted: pH 8; 20 °C.

`O=C(O)c1nc(-c2ccccc2)nc(O)c1O`: the IC50 in test [1] was 13 µM; in test [2] it was more than 100 µM.

Consider `CC(C)c1ccc(O)c(=O)c(O)c1` [hydroxytropolone, 3], for which the IC50 in test [1] was 0.66 µM.

By IC50 is commonly meant the concentration that inhibits the measured activity by half. A low value points to greater potency.

(Values after BindingDB's records for doi:10.1021/jm900597q (Gilead Sciences, 2009).)
